According to patent US7838508B2, “4′-thio-L-xyloy furanosyl nucleosides, precursors thereof, preparation and use thereof” (priority 2000, dated 2010):
Like-named read-outs stand apart in the source and are kept apart here.

Experiments:
NCI-H23 (lung) = experiment: Cell culture cytotoxicity, NCI-H23 (lung); format: cell-based, human
Method: (§1) The cell culture cytotoxicity of compounds of the present invention was determined against several different human cancel cell lines (see Table 1 below) and for antiviral activity (see Table 2 below).

SNB-7 (CNS) = experiment: Cell culture cytotoxicity, SNB-7 (CNS); format: cell-based, human
Method: as §1

DLD-1 (colon) = experiment: Cell culture cytotoxicity, DLD-1 (colon); format: cell-based, human
Method: as §1

SK-MEL-28 (melanoma) = experiment: Cell culture cytotoxicity, SK-MEL-28 (melanoma); format: cell-based, human
Method: as §1

CAKI-1 (renal) = experiment: Cell culture cytotoxicity, CAKI-1 (renal); format: cell-based, human
Method: as §1

CCRF-CEM (leukemia) = experiment: Cell culture cytotoxicity, CCRF-CEM (leukemia); format: cell-based, human; settings: read-out: Cytotoxicity IC50, CCRF-CEM (leukemia)
Method: as §1

CMV = experiment: Antiviral (CMV) activity; format: cell-based; settings: for IC50: Human betaherpesvirus 5, Antiviral (CMV) data, read-out: IC50: 50% Inhibitory Concentration of CMV; for TI: Therapeutic Index (TC50/IC50): TC50/IC50, CMV
Method: as §1

[1] = Toxicity (cell viability) in antiviral (CMV) test; format: cell-based; settings: Antiviral (CMV) data; read-out: TC50: Toxic Concentration at 50% cell viability
Method: as §1

[2] = NCI-H23 human lung cancer cell line, read-out: Cytotoxicity IC50, NCI-H23 (lung)
[3] = SNB-7 human CNS cancer cell line, read-out: Cytotoxicity IC50, SNB-7 (CNS)
[4] = DLD-1 human colon cancer cell line, read-out: Cytotoxicity IC50, DLD-1 (colon)
[5] = SK-MEL-28 human melanoma cell line, read-out: Cytotoxicity IC50, SK-MEL-28 (melanoma)
[6] = CAKI-1 human renal cancer cell line, read-out: Cytotoxicity IC50, CAKI-1 (renal)
[7] = CCRF-CEM human leukemia cell line

| Compound | IC50 (NCI-H23 (lung); [2]) | IC50 (SNB-7 (CNS); [3]) | IC50 (DLD-1 (colon); [4]) | IC50 (SK-MEL-28 (melanoma); [5]) | IC50 (CAKI-1 (renal); [6]) | IC50 (CCRF-CEM (leukemia); [7]) | IC50 (CMV) | TI: Therapeutic Index (TC50/IC50) (CMV) | CC50 [1] | IC50 (NCI-H23 (lung); Homo sapiens, NCI-H23, read-out: Cytotoxicity IC50, NCI-H23 (lung)) | IC50 (SNB-7 (CNS); Homo sapiens, SNB-7, read-out: Cytotoxicity IC50, SNB-7 (CNS)) | IC50 (DLD-1 (colon); Homo sapiens, DLD-1, read-out: Cytotoxicity IC50, DLD-1 (colon)) | IC50 (SK-MEL-28 (melanoma); Homo sapiens, SK-MEL-28, read-out: Cytotoxicity IC50, SK-MEL-28 (melanoma)) | IC50 (CAKI-1 (renal); Homo sapiens, CAKI-1, read-out: Cytotoxicity IC50, CAKI-1 (renal)) | IC50 (CCRF-CEM (leukemia); Homo sapiens, CCRF-CEM) |
| --- | --- | --- | --- | --- | --- | --- | --- | --- | --- | --- | --- | --- | --- | --- | --- |
| 1-(4′-thio-α,β-L-Xylofuranosyl)thymine [Compound 17αβ] | > 100 µM | > 100 µM | > 100 µM | > 100 µM | > 100 µM | > 100 µM |  |  |  |  |  |  |  |  |  |
| Nc1nc(Cl)nc2c1ncn2[C@@H]1S[C@@H](CO)[C@@H](O)[C@@H]1O [Compound 9α, 2-Chloro-9-(4-thio-α-L-xylofuranosyl)adenine] | > 100 µM | > 100 µM | > 100 µM | > 100 µM | > 100 µM | > 100 µM |  |  |  |  |  |  |  |  |  |
| Nc1nc(Cl)nc2c1ncn2[C@H]1S[C@@H](CO)[C@@H](O)[C@@H]1O [Compound 9β, 2-Chloro-9-(4-thio-β-L-xylofuranosyl)adenine] | > 100 µM | > 100 µM | > 100 µM | > 100 µM | > 100 µM | > 100 µM |  |  |  |  |  |  |  |  |  |
| Nc1nc(N)c2ncn([C@@H]3S[C@@H](CO)[C@@H](O)[C@@H]3O)c2n1 [Compound 12α, 9-(4-Thio-α-L-Xylofuranosyl)-9H-purine-2,6-diamine] | > 100 µM | > 100 µM | > 100 µM | > 100 µM | > 100 µM | > 100 µM | 0.051 µM | >196.1 | > 10 µM |  |  |  |  |  |  |
| Nc1nc(N)c2ncn([C@H]3S[C@@H](CO)[C@@H](O)[C@@H]3O)c2n1 [Compound 12β, 9-(4-Thio-β-L-Xylofuranosyl)-9H-purine-2,6-diamine] | > 100 µM | > 100 µM | > 100 µM | > 100 µM | > 100 µM | > 100 µM |  |  |  |  |  |  |  |  |  |
| Nc1nc2c(ncn2[C@H]2S[C@@H](CO)[C@@H](O)[C@@H]2O)c(=O)[nH]1 [Compound 13, 9-(4-Thio-β-L-xylofuranosyl)guanine] | > 100 µM | > 100 µM | > 100 µM | > 100 µM | > 100 µM | > 100 µM |  |  |  |  |  |  |  |  |  |
| Nc1ccn([C@@H]2S[C@@H](CO)[C@@H](O)[C@@H]2O)c(=O)n1 [Compound 15α, 1-(4-thio-α-L-Xylofuranosyl)cytosine] | > 100 µM | > 100 µM | > 100 µM | > 100 µM | > 100 µM | 8 µM | 0.026 µM | >384.6 | > 10 µM |  |  |  |  |  |  |
| Nc1ccn([C@H]2S[C@@H](CO)[C@@H](O)[C@@H]2O)c(=O)n1 [Compound 15β, 1-(4-thio-β-L-Xylofuranosyl)cytosine] | > 100 µM | 90 µM | > 100 µM | > 100 µM | > 100 µM | 11 µM | 0.022 µM | >454.5 | > 10 µM |  |  |  |  |  |  |
| O=c1ccn(C2S[C@@H](CO)[C@@H](O)[C@@H]2O)c(=O)[nH]1 (stereo partly drawn) [Compound 19αβ, 1-(4-thioα,β-L-Xylofuranosyl)uracil] |  |  |  |  |  |  |  |  |  | > 100 µM | > 100 µM | > 100 µM | > 100 µM | > 100 µM | > 100 µM |
| Nc1nc(O)c2ncn(COC(CO)CO)c2n1 [Ganciclovir, reference compound] |  |  |  |  |  |  | 8.6 µM | >11.6 | > 10 µM |  |  |  |  |  |  |
